Results: publication PMC10770970, “Synthesis and cytotoxic activity evaluation of novel imidazopyridine carbohydrazide derivatives” (BMC Chemistry, 2024)
“Also recorded” adds a separate entry of the source.

How the values were obtained:
[1] = system: K562 (human chronic myelogenous leukemia) cells; experiment: MTT reduction cytotoxicity assay, K562; type: cell-based; conditions: ± S.E.M., max tested 100 µM
Procedure: (§1) All synthesized compounds were evaluated for cytotoxic activity against three human cancer cell lines including MCF-7, HT-29, and K562 by employing an MTT (3-(4,5-dimethylthiazol-2-yl)-2,5-diphenyltetrazolium bromide) assay. […] Cisplatin and doxorubicin were tested as standard chemotherapeutic reference agents.
(§2) MCF-7 (human breast adenocarcinoma), HT-29 (Human colorectal adenocarcinoma), K562 (human chronic myelogenous leukemia), and Vero (kidney epithelial cells of African green monkey) cells were obtained from Iranian Biological Resource Center, Tehran, Iran. MCF-7, K562, and Vero cells were cultured in RPMI 1640 medium containing 10% heat-inactivated fetal bovine serum (FBS) and 1% penicillin/streptomycin, while HT-29 cells were grown in DMEM low glucose, containing 20% heat-inactivated FBS and 1% penicillin/streptomycin. All cells were grown in monolayer culture at 37 °C in a humidified incubator with 5% CO2.
(§3) Assessment of cell viability after exposure of cancer and non-cancer cells to synthetic compounds was performed using the MTT (3-(4,5-dimethylthiazol-2-yl)-2,5-diphenyltetrazolium bromide) reduction assay. Cells were plated in 96-well microplates at densities of 30,000 cells/mL (100 μL in each well). The plates were incubated overnight at 37 °C and then 50 μL of the growth medium was replaced with the same amount of fresh medium containing 3–4 different concentrations of synthesized analogs at the final concentrations of 10–100 µM. Test compounds were initially dissolved in DMSO and then diluted in the growth medium. The upper limit of DMSO concentration in each well was 0.5%. After 72 h of incubation, 80 μL of the solution in each well was substituted with the same quantity of the growth medium comprising of MTT solution at 0.5 mg/mL. Cells were subsequently incubated at 37 °C for 4 h and then 80 μL of the solution in each well was removed. The introduction of DMSO (200 μL) to each well caused the formazan crystals formed inside the viable cells to dissolve. The process lasted 1.5 h (1 h of incubation and 30 min of shaking). The optical absorbance of the final solution was quantified at the wavelength of 570 nm using a microplate reader. IC50 values for all derivatives were calculated using CurveExpert 1.34 software.

[2] = system: Vero (kidney epithelial cells of African green monkey) cells; experiment: MTT reduction cytotoxicity assay, Vero non-cancer cells; type: cell-based; conditions: 72 h, ± S.E.M., max tested 100 µM
Procedure: as §1, §2, §3

[3] = system: MCF-7 (human breast adenocarcinoma) cells; experiment: MTT reduction cytotoxicity assay, MCF-7; type: cell-based; conditions: ± S.E.M., max tested 100 µM
Procedure: as §1, §2, §3

[4] = system: HT-29 (Human colorectal adenocarcinoma) cells; experiment: MTT reduction cytotoxicity assay, HT-29; type: cell-based; conditions: ± S.E.M., max tested 100 µM
Procedure: as §1, §2, §3

[5] = system: MCF-7 cells; experiment: Cell cycle analysis by RNase/propidium iodide flow cytometry; type: cell-based, human; conditions: 48 h; for Percent of MCF-7 cells in Sub G1: control 0.8 ± 0.3; for Percent of MCF-7 cells in S: control 11.7 ± 2.3; for Percent of MCF-7 cells in G2/M: control 26.1 ± 2.9; for Percent of MCF-7 cells in G0/G1: control 61.4 ± 1.4
Procedure: Fig. 3 Effect of compound 7d on cell cycle phase distribution of MCF-7 cells. The analysis of cells in different phases of the cell cycle was performed using propidium iodide (PI)-based assessment of cell cycle by flow cytometry. […] The cells were then collected, washed with PBS and fixed with 70% ethanol overnight at −20 °C. After 24 h, the fixed cells were incubated in a PI-RNase solution at room temperature and 10,000 cells were analyzed using a FACS Calibur flow cytometer (BD Biosciences)
The analysis of cells in different phases of the cell cycle and the sub-G1 phase were monitored using RNase/propidium iodide (PI)-based assessment of the cell cycle by flow cytometry. […] At the end of the incubation, the culture media in each well were collected and the cells were washed with PBS. Then, they were fixed with 70% ethanol overnight at −20 °C. After 24 h, the fixed cells were washed with PBS and subsequently stained with DNA staining solution (PI 20 μg/mL and RNase 200 μg/mL) at room temperature for 30 min in the dark. Ten thousand cells of each sample were analyzed using a FACS Calibur flow cytometer (BD Biosciences) and the percentage of the cells in sub-G1, G0/G1, S, and G2/M phases were calculated using CellQuest (BD, USA) software.

[6] = system: MCF-7 cells; experiment: Apoptosis by Hoechst 33,258 staining; type: cell-based, human; conditions: 100 µM, 72 h
Procedure: This also further adds to the potential value of this derivative as an anticancer agent, as it is known that apoptosis evasion is an important hallmark of cancer, and apoptosis induction capacity is an important feature of any successful therapeutic agent.
Fig. 4 Measurement of apoptosis induced by Hoechst 33,258 staining assay. […] The cells were then stained with 2.5 µg/ml Hoechst 33,258 after being fixed with 4% cold paraformaldehyde (PFA) and imaged using a fluorescence microscope (Magnification: 500 X). Apoptotic cells as featured by nuclear shrinkage, fragmentation, condensation, etc., are shown by red arrows
Hoechst 33,258 staining assay was used to determine apoptosis induction in cancer cells. Hoechst 33,258 is a fluorescent dye that binds to minor grooves in DNA and is commonly used to determine the characteristic features of apoptosis including condensation and fragmentation, etc. in the cell’s nuclei. MCF-7 cells were cultured in 6-well plates at a density of 10^5 cells/ml and exposed to 100 µM of compound 7d for 72 h. The growth medium was completely removed at the end of the incubation time and the cells were fixed with 1 ml of 4% cold freshly prepared paraformaldehyde (PFA) and incubated for 20 min. […] In the end, the cells were washed twice with PBS and imaged with a fluorescence microscope (Nikon model DS-Ri2).

| melting point | Structure (SMILES) | IC50 ([1]; Homo sapiens, K562, 72 h) | IC50 ([3]; Homo sapiens, MCF7, 72 h) | IC50 ([4]; Homo sapiens, HT-29, 72 h) | IC50 ([2]; Chlorocebus sabaeus, Vero) | also measured |
| --- | --- | --- | --- | --- | --- | --- |
| – | N.N.[Cl][Pt][Cl] [Cisplatin, reference compound] | – | – | – | – | IC50 ([1]; 72 h): 9.4 ± 0.5 µM; IC50 [2]: 10.6 ± 1.3 µM; IC50 ([3]; 72 h): 25.9 ± 6.9 µM; IC50 ([4]; 72 h): 22.4 ± 5.8 µM |
| – | NNC(=O)c1cn2ccccc2n1 [Compound 5, imidazo[1,2-a]pyridine-2-carbohydrazide] | > 100 µM | > 100 µM | > 100 µM | – | – |
| 257 to 259 °C | O=C(NN=Cc1ccccc1)c1cn2ccccc2n1 [Compound 7a, N´-benzylidene imidazo[1,2-a]pyridine-2-carbohydrazide] | > 100 µM | > 100 µM | > 100 µM | – | – |
| 234 to 236 °C | O=C(NN=Cc1ccc(F)cc1)c1cn2ccccc2n1 [Compound 7b, N´-(4-fluorobenzylidene)imidazo[1,2-a]pyridine-2-carbohydrazide] | > 100 µM | > 100 µM | > 100 µM | – | – |
| 226 to 228 °C | O=C(NN=Cc1ccc(Cl)cc1)c1cn2ccccc2n1 [Compound 7c, N´-(4-chlorobenzylidene)imidazo[1,2-a]pyridine-2-carbohydrazide] | > 100 µM | 64.8 ± 11.8 µM | 85.4 ± 10.3 µM | 65.6 ± 4.5 µM | – |
| 230 to 232 °C | O=C(NN=Cc1ccc(Br)cc1)c1cn2ccccc2n1 [Compound 7d, N´-(4-bromobenzylidene)imidazo[1,2-a]pyridine-2-carbohydrazide] | > 100 µM | 22.6 ± 1 µM | 13.4 ± 1.3 µM | > 100 µM | IC50 Vero [2]: completely inactive; also recorded: no toxic effect; Percent of MCF-7 cells in Sub G1 ([5]; 7d 20 µM): 0.8 ± 0.6%; Percent of MCF-7 cells in S ([5]; 7d 20 µM): 11.9 ± 5.7%; Percent of MCF-7 cells in G2/M ([5]; 7d 20 µM): 23.3 ± 10.0%; Percent of MCF-7 cells in G0/G1 ([5]; 7d 20 µM): 64.2 ± 7.6%; Percent of MCF-7 cells in Sub G1 ([5]; 7d 50 µM): 0.8 ± 0.6%; Percent of MCF-7 cells in S ([5]; 7d 50 µM): 11.1 ± 4.9%; Percent of MCF-7 cells in G2/M ([5]; 7d 50 µM): 21.1 ± 8.8%; Percent of MCF-7 cells in G0/G1 ([5]; 7d 50 µM): 67.0 ± 8.4%; Percent of MCF-7 cells in Sub G1 ([5]; 7d 100 µM): 1.1 ± 0.9%; Percent of MCF-7 cells in S ([5]; 7d 100 µM): 10.2 ± 5.3%; Percent of MCF-7 cells in G2/M ([5]; 7d 100 µM): 21.5 ± 7.2%; Percent of MCF-7 cells in G0/G1 ([5]; 7d 100 µM): 67.2 ± 7.5%; Effect on cell cycle phase distribution (in words) ([5]; MCF-7 cells): dose-dependent increase in the G0/G1 phase and a concomitant decrease in the G2/M phase; also recorded: increased the number of MCF-7 cells in the G0/G1 phase; also recorded: increase the number of cancer cells in the G0/G1 phase; Apoptosis induction (in words) [6]: induce apoptosis; also recorded: clear signs of apoptosis including nuclear condensation and fragmentation |
| 180 to 182 °C | Cc1ccc(C=NNC(=O)c2cn3ccccc3n2)cc1 [Compound 7e, N´-(4-methylbenzylidene)imidazo[1,2-a]pyridine-2-carbohydrazide] | > 100 µM | > 100 µM | > 100 µM | – | – |
| 142 to 144 °C | C#CCNNC(=O)c1cn2ccccc2n1 [Compound 9, N´-(Prop-2-yn-1-yl) imidazo[1,2-a]pyridine-2-carbohydrazide] | 23.7 ± 2.3 µM | 70.1 ± 5.3 µM | 21.4 ± 1.9 µM | 73 ± 9.9 µM | – |
| – | O=C(NNCc1cn(Cc2ccccc2)nn1)c1cn2ccccc2n1 [Compound 11a, N´-((1-benzyl-1H-1,2,3-triazol-4-yl)methyl)imidazo[1,2-a]pyridine-2-carbohydrazide] | > 100 µM | 40.3 ± 2.9 µM | 61.2 ± 6.3 µM | > 100 µM | IC50 Vero [2]: completely inactive |
| 205 to 207 °C | O=C(NNCc1cn(Cc2ccc(F)cc2)nn1)c1cn2ccccc2n1 [Compound 11b, N´-((1-(4-fluorobenzyl)-1H-1,2,3-triazol-4-yl)methyl)imidazo[1,2-a]pyridine-carbohydrazide] | > 100 µM | > 100 µM | > 100 µM | – | – |
| 193 to 195 °C | O=C(NNCc1cn(Cc2ccc(Cl)cc2)nn1)c1cn2ccccc2n1 [Compound 11c, N´-((1-(4-chlorobenzyl)-1H-1,2,3-triazol-4-yl)methyl)imidazo[1,2-a]pyridine-carbohydrazide] | > 100 µM | > 100 µM | > 100 µM | – | – |
| 186 to 188 °C | O=C(NNCc1cn(Cc2ccc(Br)cc2)nn1)c1cn2ccccc2n1 [Compound 11d, N´-((1-(4-bromobenzyl)-1H-1,2,3-triazol-4-yl)methyl)imidazo[1,2-a]pyridine-carbohydrazide] | > 100 µM | > 100 µM | 83.9 µM | > 100 µM | IC50 K562 ([1]; 72 h): no activity; IC50 Vero [2]: completely inactive; IC50 MCF-7 ([3]; 72 h): no activity; IC50 ([4]; 72 h): 83.8 ± 13.1 µM |
| 140 to 142 °C | Cc1ccc(Cn2cc(CNNC(=O)c3cn4ccccc4n3)nn2)cc1 [Compound 11e, N´-((1-(4-methylbenzyl)-1H-1,2,3-triazol-4-yl)methyl)imidazo[1,2-a]pyridine-carbohydrazide] | > 100 µM | > 100 µM | > 100 µM | – | – |
| – | COc1cccc2c1C(=O)c1c(O)c3c(c(O)c1C2=O)C[C@@](O)(C(=O)CO)C[C@@H]3O[C@H]1C[C@H](N)[C@H](O)[C@H](C)O1 [Doxorubicin, reference compound] | – | – | – | 2.6 ± 0.3 µM | – |
